Measurements as given in patent US5202315A, “Cephalosporin compounds” (Lucky, Ltd., priority 1989, dated 1993).
≈ marks a conversion by molar mass, not a printed value. Read-outs that look alike come from different tables or passages of the source.

Columns and labels:
Type in all cases: cell-based
Pseudomonas aeruginosa = assay: Antibacterial activity against clinically isolated strains, MIC
[1] = system: Staphylococcus aureus methicillin susceptible; assay: as above; conditions: methicillin susceptible, 42 clinical isolates, broth microdilution test; for MIC90: read-out: MIC 90%
[2] = system: Staphylococcus aureus methicillin resistant; assay: as above; conditions: methicillin resistant, 7 clinical isolates, broth microdilution test; for MIC90: read-out: MIC 90%
Escherichia coli = assay: as above; conditions: 38 clinical isolates, broth microdilution test
[3] = system: Bacillus cereus ATCC 11778; assay: Antibacterial activity, MIC; conditions: ATCC11778, ATCC 11778, agar two-fold dilution, 37° C., 20 hours, read-out: MIC
Outline: (§1)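 Agar two-fold dilution method: compound serially diluted two-fold in Mueller-Hinton agar, spotted with 2 μl of a 10^7 CFU/ml inoculum of each standard strain, then incubated at 37 °C for 20 h.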

[4] = system: Staphylococcus aureus ATCC 6538p; assay: Antibacterial activity, MIC; conditions: ATCC6538P, ATCC 6538p, agar two-fold dilution, 37° C., 20 hours, read-out: MIC
Outline: as §1

[5] = system: Citrobacter freundii ATCC 8090; assay: Antibacterial activity, MIC; conditions: ATCC8090, ATCC 8090, agar two-fold dilution, 37° C., 20 hours, read-out: MIC
Outline: as §1

[6] = system: Pseudomonas aeruginosa ATCC 27853; assay: Antibacterial activity, MIC; conditions: ATCC27853, ATCC 27853, agar two-fold dilution, 37° C., 20 hours, read-out: MIC
Outline: as §1

[7] = system: Micrococcus luteus ATCC 9341; assay: Antibacterial activity, MIC; conditions: ATCC9341, ATCC 9341, agar two-fold dilution, 37° C., 20 hours, read-out: MIC
Outline: as §1

[8] = system: Shigella sonnei ATCC 11060; assay: Antibacterial activity, MIC; conditions: ATCC11060, ATCC 11060, agar two-fold dilution, 37° C., 20 hours, read-out: MIC
Outline: as §1

[9] = system: Escherichia coli ATCC 10536; assay: Antibacterial activity, MIC; conditions: ATCC10536, agar two-fold dilution, 37° C., 20 hours
Outline: as §1

[10] = system: Salmonella typhimurium ATCC 14028; assay: Antibacterial activity, MIC; conditions: Salmonella enterica; ATCC 14028; agar two-fold dilution, 37° C., 20 hours; read-out: MIC
Outline: as §1

[11] = system: Acinetobacter calcoaceticus ATCC 15473; assay: Antibacterial activity, MIC; conditions: ATCC15473, ATCC 15473, agar two-fold dilution, 37° C., 20 hours, read-out: MIC
Outline: as §1

[12] = system: Bacillus megaterium ATCC 9885; assay: Antibacterial activity, MIC; conditions: Priestia megaterium, ATCC9885; ATCC 9885; agar two-fold dilution, 37° C., 20 hours; read-out: MIC
Outline: as §1

[13] = system: Shigella flexneri ATCC 11836; assay: Antibacterial activity, MIC; conditions: ATCC11836, agar two-fold dilution, 37° C., 20 hours
Outline: as §1

[14] = system: Staphylococcus aureus ATCC 10537; assay: Antibacterial activity, MIC; conditions: ATCC10537, ATCC 10537, agar two-fold dilution, 37° C., 20 hours, read-out: MIC
Outline: as §1

[15] = system: Staphylococcus epidermidis ATCC 12228; assay: Antibacterial activity, MIC; conditions: ATCC12228, ATCC 12228, agar two-fold dilution, 37° C., 20 hours, read-out: MIC
Outline: as §1

[16] = system: Serratia marcescens ATCC 27117; assay: Antibacterial activity, MIC; conditions: ATCC27117, ATCC 27117, agar two-fold dilution, 37° C., 20 hours, read-out: MIC
Outline: as §1

[17] = system: Providencia rettgeri ATCC 9250; assay: Antibacterial activity, MIC; conditions: ATCC9250, agar two-fold dilution, 37° C., 20 hours
Outline: as §1

[18] = system: Proteus vulgaris ATCC 6059; assay: Antibacterial activity, MIC; conditions: ATCC6059, ATCC 6059, agar two-fold dilution, 37° C., 20 hours, read-out: MIC
Outline: as §1

[19] = system: Enterobacter cloacae ATCC 27508; assay: Antibacterial activity, MIC; conditions: ATCC27508, ATCC 27508, agar two-fold dilution, 37° C., 20 hours, read-out: MIC
Outline: as §1

[20] = system: Pseudomonas aeruginosa ATCC 10145; assay: Antibacterial activity, MIC; conditions: ATCC10145, ATCC 10145, agar two-fold dilution, 37° C., 20 hours, read-out: MIC
Outline: as §1

[21] = system: Proteus mirabilis ATCC 25933; assay: Antibacterial activity, MIC; conditions: ATCC25933, ATCC 25933, agar two-fold dilution, 37° C., 20 hours, read-out: MIC
Outline: as §1

[22] = system: Morganella morganii ATCC 8076h; assay: Antibacterial activity, MIC; conditions: ATCC8076H, agar two-fold dilution, 37° C., 20 hours
Outline: as §1

[23] = system: Enterobacter aerogenes ATCC 29751; assay: Antibacterial activity, MIC; conditions: Klebsiella aerogenes, ATCC29751; ATCC 29751; agar two-fold dilution, 37° C., 20 hours; read-out: MIC
Outline: as §1

[24] = system: Streptococcus faecalis ATCC 29212; assay: Antibacterial activity, MIC; conditions: Enterococcus faecalis, ATCC29212; ATCC 29212; agar two-fold dilution, 37° C., 20 hours; read-out: MIC
Outline: as §1

[25] = system: Klebsiella pneumoniae ATCC 10031; assay: Antibacterial activity, MIC; conditions: ATCC10031, ATCC 10031, agar two-fold dilution, 37° C., 20 hours, read-out: MIC
Outline: as §1

[26] = system: Pseudomonas aeruginosa ATCC 25619; assay: Antibacterial activity, MIC; conditions: ATCC25619, ATCC 25619, agar two-fold dilution, 37° C., 20 hours, read-out: MIC
Outline: as §1

[27] = system: Escherichia coli ATCC 25922; assay: Antibacterial activity, MIC; conditions: ATCC25922, agar two-fold dilution, 37° C., 20 hours
Outline: as §1

Klebsiella pneumoniae = assay: Antibacterial activity against clinically isolated strains, MIC; conditions: 10 clinical isolates, broth microdilution test; for MIC90: read-out: MIC 90%
[28] = 54 clinical isolates, broth microdilution test

Row | SMILES | MIC50 (Pseudomonas aeruginosa; [28]) [mg/L] | MIC50 [1] [mg/L] | MIC90 [1] [mg/L] | MIC50 [2] [mg/L] | MIC90 [2] [mg/L] | MIC50 (Escherichia coli) [mg/L] | MIC90 (Escherichia coli) [mg/L] | MIC [3] [mg/L] | MIC [4] [mg/L] | MIC [5] [mg/L] | MIC [6] [mg/L] | MIC [7] [mg/L] | MIC [8] [mg/L] | MIC [9] [mg/L] | MIC [10] [mg/L] | MIC [11] [mg/L] | MIC [12] [mg/L] | MIC [13] [mg/L] | MIC [14] [mg/L] | MIC [15] [mg/L] | also measured
1 | C#CCO/N=C(\C(=O)NC1C(=O)N2C(C(=O)[O-])=C(CSc3nc(N)cc(N)[n+]3CC)CSC12)c1csc(N)n1 (stereo not shown) [Compound I-47] | 4 (≈ 6.78 µM) | 0.25 (≈ 0.424 µM) | 0.25 (≈ 0.424 µM) | 64 (≈ 109 µM) | 64 (≈ 109 µM) | 0.063 (≈ 0.107 µM) | 0.25 (≈ 0.424 µM) | 8 (≈ 13.6 µM) | 0.25 (≈ 0.424 µM) | 0.13 (≈ 0.22 µM) | 2 (≈ 3.39 µM) | ≤ 0.008 | 0.13 (≈ 0.22 µM) | 0.13 (≈ 0.22 µM) | 0.25 (≈ 0.424 µM) | 4 (≈ 6.78 µM) | 0.13 (≈ 0.22 µM) | 0.016 (≈ 0.0271 µM) | 0.13 (≈ 0.22 µM) | 0.031 (≈ 0.0526 µM) | MIC90 (Pseudomonas aeruginosa): 16 mg/L (≈ 27.1 µM); MIC [16]: 0.13 mg/L (≈ 0.22 µM); MIC [17]: ≤ 0.008 mg/L; MIC [18]: 0.13 mg/L (≈ 0.22 µM); MIC [19]: 0.016 mg/L (≈ 0.0271 µM); MIC [20]: 8 mg/L (≈ 13.6 µM); MIC [21]: 0.13 mg/L (≈ 0.22 µM); MIC [22]: ≤ 0.008 mg/L; MIC [23]: 0.5 mg/L (≈ 0.848 µM); MIC [24]: 32 mg/L (≈ 54.3 µM); MIC [25]: ≤ 0.008 mg/L; MIC [26]: 1 mg/L (≈ 1.7 µM); MIC [27]: 0.13 mg/L (≈ 0.22 µM); MIC50 (Klebsiella pneumoniae): 0.25 mg/L (≈ 0.424 µM); MIC90 (Klebsiella pneumoniae): 0.25 mg/L (≈ 0.424 µM)
2 | C#CCO/N=C(\C(=O)NC1C(=O)N2C(C(=O)[O-])=C(CSc3nc(N)cc(N)[n+]3C)CSC12)c1csc(N)n1 (stereo not shown) [Compound I-46] | 4 (≈ 6.95 µM) | 0.25 (≈ 0.434 µM) | 0.25 (≈ 0.434 µM) | > 32 | > 32 | 0.13 (≈ 0.226 µM) | 0.25 (≈ 0.434 µM) | 8 (≈ 13.9 µM) | 0.13 (≈ 0.226 µM) | 0.063 (≈ 0.109 µM) | 2 (≈ 3.47 µM) | 0.016 (≈ 0.0278 µM) | 0.063 (≈ 0.109 µM) | 0.063 (≈ 0.109 µM) | 0.25 (≈ 0.434 µM) | 2 (≈ 3.47 µM) | 0.063 (≈ 0.109 µM) | 0.016 (≈ 0.0278 µM) | 0.13 (≈ 0.226 µM) | 0.031 (≈ 0.0539 µM) | MIC90 (Pseudomonas aeruginosa; 54 clinical isolates, broth microdilution test, read-out: MIC 90%): 8 mg/L (≈ 13.9 µM); MIC [16]: 0.13 mg/L (≈ 0.226 µM); MIC [17]: ≤ 0.008 mg/L; MIC [18]: 0.13 mg/L (≈ 0.226 µM); MIC [19]: ≤ 0.008 mg/L; MIC [20]: 4 mg/L (≈ 6.95 µM); MIC [21]: 0.063 mg/L (≈ 0.109 µM); MIC [22]: ≤ 0.008 mg/L; MIC [23]: 0.25 mg/L (≈ 0.434 µM); MIC [24]: 16 mg/L (≈ 27.8 µM); MIC [25]: ≤ 0.008 mg/L; MIC [26]: 0.5 mg/L (≈ 0.869 µM); MIC [27]: 0.063 mg/L (≈ 0.109 µM); MIC50 (Klebsiella pneumoniae): 0.13 mg/L (≈ 0.226 µM); MIC90 (Klebsiella pneumoniae): 0.13 mg/L (≈ 0.226 µM)
